Source: patent US9637488B2, “Heterocyclic compounds as inhibitors of class I PI3KS” (priority 2015, dated 2017)

Key:
Format in all cases: biochemical
PI3Kγ (p110γ) = PI3Kγ (p110γ) (Homo sapiens (Human), UniProt P48736); test: cell-free PI3K HTRF assay, PI3Kγ; conditions: ratio of IC50 against PI3Kγ related to PI3Kδ; 10-dose, 3-fold serial dilution starting at 10 μM
Description: (§1) Exemplary compounds of the invention were tested for inhibitory activity and potency against class I PI3Ks (p110α/p85α, p110β/p85α, p110δ/p85α and p110γ) using a cell-free based PI3K HTRF assay. This assay was used to detect the formation of the product 3,4,5-inositol triphosphate molecule (PIP3) by displacement of biotin-PIP3 from an energy transfer complex consisting of Europium labeled anti-GST monoclonal antibody, a GST-tagged pleckstrin homology (PH) domain, biotinylated PIP3 and Streptavidin-Allophycocyanin (APC). Excitation of Europium in the complex results in an energy transfer to the APC and a fluorescent emission at 665 nm. The PIP3 product formed by human PI 3-Kinase activity displaces biotin-PIP3 from the complex resulting in a loss of energy transfer and thus a decrease in signal.
(§2) Human class I PI3K isoforms were co-expressed in a Baculovirus infected cell expression system. The PI3K isoforms were assayed in the presence of HEPES (50 mM, pH 7.0), NaN3 (0.02%), BSA (0.01%), orthovanadate (0.1 mM), and DMSO (1%). The exemplary compounds dissolved in DMSO were delivered into the kinase reaction mixture by Acoustic technology (Echo550; nanolitter range), and were pre-incubated for 10 min at room temperature before adding ATP (10 μM) to initiate the reaction. After 30 min at 30° C., the reactions were quenched with a stop solution, incubated overnight with a detection mixture before measuring HTRF (Ex: 320 nm; Em: 615/665 nm). The emission ratio is converted into μM PIP3 production based on PIP3 standard curves, and the nonlinear regression to obtain the standard curve and IC50 values are performed using Graphpad Prism software.
(§3) The assays were performed at Reaction Biology Corporation, One Great Valley Parkway, Suite 2, Malvern, Pa. 19355, USA.
(§4) Exemplary compounds of the invention selected were further tested their inhibitory activity or potency against PI3Kα, PI3Kβ, and PI3Kγ in 10-dose IC50 mode with 3-fold serial dilution starting at 10 μM. […] Table 5 below illustrates the selectivity of the exemplary compounds using the ratios of the IC50 values of the compounds against PI3Kα, PI3Kβ, and PI3Kγ related to PI3Kδ. […] Such unexpected selectivity against PI3Kδ and/or PI3Kγ is attributed to the unusual overall shape of the molecules of formula (I) and (II), and the optimal selection of R1, R2, R3, R4, X, and Y defined in formula (I) and (II) in order to bind favorably in the ATP-binding pocket of PI3Kδ and/or PI3Kγ versus other class I isozymes.

PI3Kβ (p110β/p85α) = PI3Kβ (p110β/p85α) (Homo sapiens (Human), UniProt P42338); test: cell-free PI3K HTRF assay, PI3Kβ; conditions: ratio of IC50 against PI3Kβ related to PI3Kδ; 10-dose, 3-fold serial dilution starting at 10 μM
Sequence of PI3Kβ (p110β/p85α) (P42338 whole entry): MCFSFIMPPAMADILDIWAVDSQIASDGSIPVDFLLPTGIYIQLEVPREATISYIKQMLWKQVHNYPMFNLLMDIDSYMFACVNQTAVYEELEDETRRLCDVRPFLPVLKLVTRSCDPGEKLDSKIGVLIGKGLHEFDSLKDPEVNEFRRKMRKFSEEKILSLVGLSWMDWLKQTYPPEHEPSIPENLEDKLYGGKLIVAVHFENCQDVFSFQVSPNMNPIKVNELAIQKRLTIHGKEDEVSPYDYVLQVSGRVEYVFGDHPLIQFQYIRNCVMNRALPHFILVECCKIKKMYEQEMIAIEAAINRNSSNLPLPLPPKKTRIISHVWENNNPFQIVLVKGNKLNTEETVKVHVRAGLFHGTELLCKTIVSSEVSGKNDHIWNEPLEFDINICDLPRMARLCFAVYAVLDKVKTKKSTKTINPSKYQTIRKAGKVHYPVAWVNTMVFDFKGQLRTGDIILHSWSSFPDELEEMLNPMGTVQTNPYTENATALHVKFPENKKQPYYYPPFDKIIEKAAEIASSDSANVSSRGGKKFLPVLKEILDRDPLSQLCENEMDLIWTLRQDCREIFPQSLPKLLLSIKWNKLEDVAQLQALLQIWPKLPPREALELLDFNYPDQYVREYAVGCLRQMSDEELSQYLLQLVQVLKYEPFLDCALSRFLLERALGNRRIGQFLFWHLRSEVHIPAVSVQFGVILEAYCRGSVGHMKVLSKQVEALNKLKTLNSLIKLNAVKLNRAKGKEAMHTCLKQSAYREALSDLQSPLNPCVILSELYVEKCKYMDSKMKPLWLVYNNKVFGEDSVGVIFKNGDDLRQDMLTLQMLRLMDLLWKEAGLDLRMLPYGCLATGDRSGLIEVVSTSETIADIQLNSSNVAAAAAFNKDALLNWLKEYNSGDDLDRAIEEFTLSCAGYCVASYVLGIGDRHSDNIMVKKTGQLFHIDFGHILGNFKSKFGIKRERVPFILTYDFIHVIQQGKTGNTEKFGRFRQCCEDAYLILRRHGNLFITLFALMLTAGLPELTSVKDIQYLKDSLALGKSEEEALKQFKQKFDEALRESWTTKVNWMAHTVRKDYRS
Sequence of PI3Kβ (p110β/p85α) (P27986 whole entry partner): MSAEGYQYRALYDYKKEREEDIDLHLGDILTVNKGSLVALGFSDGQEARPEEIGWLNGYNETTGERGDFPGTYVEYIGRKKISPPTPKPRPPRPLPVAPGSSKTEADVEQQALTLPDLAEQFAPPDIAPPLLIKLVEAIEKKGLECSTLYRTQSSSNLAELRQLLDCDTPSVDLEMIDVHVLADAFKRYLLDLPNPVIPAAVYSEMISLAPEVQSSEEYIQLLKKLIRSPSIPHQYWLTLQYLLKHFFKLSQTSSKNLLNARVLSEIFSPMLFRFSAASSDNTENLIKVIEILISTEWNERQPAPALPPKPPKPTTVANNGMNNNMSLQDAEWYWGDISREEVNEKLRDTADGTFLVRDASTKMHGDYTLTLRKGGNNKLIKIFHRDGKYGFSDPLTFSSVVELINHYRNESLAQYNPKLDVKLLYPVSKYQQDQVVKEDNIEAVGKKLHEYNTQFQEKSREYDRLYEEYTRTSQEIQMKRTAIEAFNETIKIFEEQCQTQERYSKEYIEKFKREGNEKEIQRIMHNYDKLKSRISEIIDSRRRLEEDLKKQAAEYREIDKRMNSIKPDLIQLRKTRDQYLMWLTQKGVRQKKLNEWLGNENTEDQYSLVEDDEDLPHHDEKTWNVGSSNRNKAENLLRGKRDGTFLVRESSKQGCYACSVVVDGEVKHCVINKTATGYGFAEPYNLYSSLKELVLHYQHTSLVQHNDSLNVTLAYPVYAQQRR
Description: as §1, §2, §3, §4

PI3Kδ (p110δ/p85α) = PI3Kδ (p110δ/p85α) (Homo sapiens (Human), UniProt O00329); test: cell-free PI3K HTRF assay, PI3Kδ; conditions: for IC50: 10-dose IC50 mode, 3-fold serial dilution starting at 1 μM, ATP 10 μM, read-out: IC50 value for the inhibition of PI3Kδ; for potency or inhibition against PI3Kδ (in words): qualitative statement
Sequence of PI3Kδ (p110δ/p85α) (O00329 whole entry): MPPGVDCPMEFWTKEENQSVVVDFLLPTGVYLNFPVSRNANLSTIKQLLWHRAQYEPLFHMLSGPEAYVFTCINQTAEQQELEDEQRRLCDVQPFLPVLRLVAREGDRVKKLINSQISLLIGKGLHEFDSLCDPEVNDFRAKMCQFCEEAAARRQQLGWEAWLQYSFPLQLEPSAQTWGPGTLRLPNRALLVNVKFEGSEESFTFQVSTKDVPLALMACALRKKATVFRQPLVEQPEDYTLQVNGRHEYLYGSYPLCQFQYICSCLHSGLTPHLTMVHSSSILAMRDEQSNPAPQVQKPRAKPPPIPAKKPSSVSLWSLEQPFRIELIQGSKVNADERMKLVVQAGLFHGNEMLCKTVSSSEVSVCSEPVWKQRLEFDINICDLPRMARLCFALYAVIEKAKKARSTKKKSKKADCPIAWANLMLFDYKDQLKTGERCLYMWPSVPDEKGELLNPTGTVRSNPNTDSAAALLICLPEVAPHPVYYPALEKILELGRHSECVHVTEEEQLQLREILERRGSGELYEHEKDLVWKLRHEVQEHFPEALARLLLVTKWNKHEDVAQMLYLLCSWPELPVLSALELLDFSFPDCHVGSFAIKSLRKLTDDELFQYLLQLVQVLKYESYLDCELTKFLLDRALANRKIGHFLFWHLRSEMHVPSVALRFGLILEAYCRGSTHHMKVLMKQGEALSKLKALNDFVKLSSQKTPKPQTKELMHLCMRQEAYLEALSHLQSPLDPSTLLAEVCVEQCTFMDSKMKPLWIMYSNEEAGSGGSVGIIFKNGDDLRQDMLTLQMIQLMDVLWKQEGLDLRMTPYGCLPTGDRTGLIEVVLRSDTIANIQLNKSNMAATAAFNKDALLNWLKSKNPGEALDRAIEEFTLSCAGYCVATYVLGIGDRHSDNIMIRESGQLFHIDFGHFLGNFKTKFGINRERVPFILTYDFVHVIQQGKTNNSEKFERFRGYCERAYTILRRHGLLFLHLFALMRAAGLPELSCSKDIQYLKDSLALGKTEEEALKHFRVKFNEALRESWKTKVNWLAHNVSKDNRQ
Sequence of PI3Kδ (p110δ/p85α) (P27986 whole entry partner): as the sequence (P27986 whole entry partner) above

PI3Kα (p110α/p85α) = PI3Kα (p110α/p85α) (Homo sapiens (Human), UniProt P42336); test: cell-free PI3K HTRF assay, PI3Kα; conditions: ratio of IC50 against PI3Kα related to PI3Kδ; 10-dose, 3-fold serial dilution starting at 10 μM
Sequence of PI3Kα (p110α/p85α) (P42336 whole entry): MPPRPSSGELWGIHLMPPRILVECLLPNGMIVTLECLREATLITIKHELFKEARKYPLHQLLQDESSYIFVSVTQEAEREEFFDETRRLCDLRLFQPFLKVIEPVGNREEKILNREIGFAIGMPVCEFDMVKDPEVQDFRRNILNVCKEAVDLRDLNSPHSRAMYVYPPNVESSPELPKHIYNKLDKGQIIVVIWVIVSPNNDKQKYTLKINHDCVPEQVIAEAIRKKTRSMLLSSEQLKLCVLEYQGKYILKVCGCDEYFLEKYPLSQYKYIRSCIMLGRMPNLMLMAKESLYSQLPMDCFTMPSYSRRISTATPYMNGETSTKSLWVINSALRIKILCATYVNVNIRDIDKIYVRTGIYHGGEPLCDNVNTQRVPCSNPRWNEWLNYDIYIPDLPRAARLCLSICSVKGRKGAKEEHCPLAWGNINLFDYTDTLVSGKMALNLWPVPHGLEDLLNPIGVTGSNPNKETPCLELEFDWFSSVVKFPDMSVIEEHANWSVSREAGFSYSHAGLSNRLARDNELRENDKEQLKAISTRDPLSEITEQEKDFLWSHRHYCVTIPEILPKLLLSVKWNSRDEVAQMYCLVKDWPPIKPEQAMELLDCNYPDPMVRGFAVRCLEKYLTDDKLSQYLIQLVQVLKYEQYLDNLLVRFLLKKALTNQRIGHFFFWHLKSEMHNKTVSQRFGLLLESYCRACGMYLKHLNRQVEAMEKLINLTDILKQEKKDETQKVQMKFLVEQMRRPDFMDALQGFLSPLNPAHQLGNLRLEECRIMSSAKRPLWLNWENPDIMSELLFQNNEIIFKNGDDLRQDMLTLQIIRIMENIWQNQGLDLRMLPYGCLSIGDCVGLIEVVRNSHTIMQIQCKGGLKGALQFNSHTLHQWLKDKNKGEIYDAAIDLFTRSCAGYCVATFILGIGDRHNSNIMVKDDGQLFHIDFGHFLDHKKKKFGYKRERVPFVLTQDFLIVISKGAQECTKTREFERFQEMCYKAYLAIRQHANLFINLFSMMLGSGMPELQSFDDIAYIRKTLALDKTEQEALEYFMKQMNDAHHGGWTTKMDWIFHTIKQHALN
Sequence of PI3Kα (p110α/p85α) (P27986 whole entry partner): as the sequence (P27986 whole entry partner) above
Description: as §1, §2, §3, §4

Sequence of PI3Kγ (p110γ) (P48736 whole entry): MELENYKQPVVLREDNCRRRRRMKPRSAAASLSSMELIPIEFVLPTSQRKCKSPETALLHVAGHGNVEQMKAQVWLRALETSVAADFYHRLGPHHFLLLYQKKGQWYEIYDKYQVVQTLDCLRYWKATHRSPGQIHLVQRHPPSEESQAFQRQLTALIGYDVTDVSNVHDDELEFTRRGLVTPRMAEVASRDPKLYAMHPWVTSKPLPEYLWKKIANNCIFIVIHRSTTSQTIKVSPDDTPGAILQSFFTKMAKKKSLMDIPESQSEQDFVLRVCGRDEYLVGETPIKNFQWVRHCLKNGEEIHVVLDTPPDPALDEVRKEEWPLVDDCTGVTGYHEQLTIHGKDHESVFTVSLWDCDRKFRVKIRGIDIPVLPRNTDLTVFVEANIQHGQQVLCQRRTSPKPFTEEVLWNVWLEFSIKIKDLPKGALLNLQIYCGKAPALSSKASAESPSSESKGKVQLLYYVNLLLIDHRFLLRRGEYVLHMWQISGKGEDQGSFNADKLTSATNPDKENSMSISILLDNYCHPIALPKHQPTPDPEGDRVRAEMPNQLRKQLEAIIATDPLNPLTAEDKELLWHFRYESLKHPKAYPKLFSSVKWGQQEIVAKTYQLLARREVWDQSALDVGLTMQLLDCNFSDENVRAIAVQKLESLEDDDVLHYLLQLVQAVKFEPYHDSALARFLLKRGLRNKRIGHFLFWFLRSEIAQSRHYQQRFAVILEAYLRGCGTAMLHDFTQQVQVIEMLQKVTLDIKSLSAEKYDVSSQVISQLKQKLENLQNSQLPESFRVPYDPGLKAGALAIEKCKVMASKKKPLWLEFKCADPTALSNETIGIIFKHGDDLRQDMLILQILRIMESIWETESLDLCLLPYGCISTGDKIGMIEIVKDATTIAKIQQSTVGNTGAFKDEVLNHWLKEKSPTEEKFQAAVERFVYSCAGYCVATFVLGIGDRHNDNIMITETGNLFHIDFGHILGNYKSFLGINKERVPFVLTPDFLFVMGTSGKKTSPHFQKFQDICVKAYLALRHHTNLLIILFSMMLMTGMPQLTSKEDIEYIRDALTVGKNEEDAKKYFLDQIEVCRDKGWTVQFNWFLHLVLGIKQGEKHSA

SMILES | Ratio (γ/δ) (PI3Kγ (p110γ)) | Ratio (β/δ) (PI3Kβ (p110β/p85α)) | IC50 (PI3Kδ (p110δ/p85α)) [nM] | Ratio (α/δ) (PI3Kα (p110α/p85α)) | potency or inhibition against PI3Kδ (in words) (PI3Kδ (p110δ/p85α))
Fc1ccc2cc(C3CCCN3c3ncnc4[nH]cnc34)c(-c3cccnc3)nc2c1 (stereo not drawn) [Compound 1, 3-(1-(9H-purin-6-yl)pyrrolidin-2-yl)-7-fluoro-2-(pyridin-3-yl)quinoline] | 39 | 267 | 27 | – | –
Nc1cc(N2CCCC2c2cc3ccc(F)cc3nc2-c2ccccc2)nc(N)n1 (stereo not drawn) [Compound 28] | – | – | > 1000 | – | –
Fc1ccc2cc([C@@H]3CCCN3c3ncnc4[nH]cnc34)c(-c3ccccn3)nc2c1 [Compound 62] | 53 | 520 | 12.8 | >781 | –
Fc1ccc2cc(C3CCCN3c3ncnc4[nH]cnc34)c(-c3ccccc3F)nc2c1 (stereo not drawn) [Compound 24] | 22 | 393 | 16 | >613 | –
COc1cccc(-c2nc3cc(F)ccc3cc2C2CCCN2c2ncnc3[nH]cnc23)c1 (stereo not drawn) [Compound 23] | 50 | 396 | 11 | >926 | –
Fc1ccc2cc(C3CCCN3c3ncnc4[nH]cnc34)c(N3CCOCC3)nc2c1 (stereo not drawn) [Compound 20] | 18.8 | 190 | 19 | 528 | –
Fc1ccc2cc(C3CCCN3c3ncnc4[nH]cnc34)c(-c3cccc(OC(F)(F)F)c3)nc2c1 (stereo not drawn) [Compound 26] | 12 | 39.7 | 207 | 483 | –
Cc1cccc2cc([C@@H]3CCCN3c3ncnc4[nH]cnc34)c(-c3ccccc3)nc12 [Compound 63] | 5.6 | 264 | 18 | 556 | –
N#Cc1c(N)ncnc1N1CC=CCC1c1cc2ccc(F)cc2nc1-c1ccccc1 (stereo not drawn) [Compound 42] | 103 | >181 | 55 | – | –
Cn1c(=O)n(C)c2c(N3CCCC3c3cc4ccc(F)cc4nc3-c3ccccn3)ncnc21 (stereo not drawn) [Compound 13] | – | – | > 1000 | – | week potency or inhibition
N#Cc1c(N)ncnc1N1CCCC1c1cc2ccc(F)cc2nc1-c1ccncc1 (stereo not drawn) [Compound 15] | 2.2 | 11 | 62 | 138 | –
Fc1ccc2cc(C3CCCCCN3c3ncnc4[nH]cnc34)c(-c3ccccc3)nc2c1 (stereo not drawn) [Compound 45, 3-(1-(9H-purin-6-yl)azepan-2-yl)-7-fluoro-2-phenylquinoline] | – | – | > 1000 | – | week potency or inhibition
N#Cc1c(N)ncnc1N1CC=CCC1c1cc2ccc(F)cc2nc1N1CCOCC1 (stereo not drawn) [Compound 44] | 152 | 297 | 6.2 | – | –
Fc1ccc2cc(C3CCCN3c3ncnc4[nH]cnc34)c(-c3ccncc3)nc2c1 (stereo not drawn) [Compound 14] | 3.3 | 4.2 | 521 | >19 | –
Fc1ccc2cc(C3CC=CCN3c3ncnc4[nH]cnc34)c(-c3ccccc3)nc2c1 (stereo not drawn) [Compound 31, 3-(1-(9H-purin-6-yl)-1,2,3,6-tetrahydropyridin-2-yl)-7-fluoro-2-phenylquinoline] | 16 | >97 | 103 | – | –
COc1ccccc1-c1nc2cc(F)ccc2cc1C1CCCN1c1ncnc2[nH]cnc12 (stereo not drawn) [Compound 25] | 5.1 | 297 | 14 | >694 | –
Fc1ccc2cc(C3CCCN3c3ncnc4[nH]cnc34)c(-c3ccccn3)nc2c1 (stereo not drawn) [Compound 10, 3-(1-(9H-purin-6-yl)pyrrolidin-2-yl)-7-fluoro-2-(pyridin-2-yl)quinoline] | 53 | 519 | 13 | >781 | –
Fc1ccc2cc(C3CC=CCN3c3ncnc4[nH]cnc34)c(N3CCOCC3)nc2c1 (stereo not drawn) [Compound 43] | 39 | 169 | 6.8 | 689 | –
Fc1ccc2cc(C3CCCCN3c3ncnc4[nH]cnc34)c(-c3ccccc3)nc2c1 (stereo not drawn) [Compound 41] | – | – | 240 | – | –

Compounds with a lower IC50 (PI3Kδ (p110δ/p85α)), results first:

Ratio (γ/δ) (PI3Kγ (p110γ)) | Ratio (β/δ) (PI3Kβ (p110β/p85α)) | IC50 (PI3Kδ (p110δ/p85α)) [nM] | Ratio (α/δ) (PI3Kα (p110α/p85α)) | potency or inhibition against PI3Kδ (in words) (PI3Kδ (p110δ/p85α)) | SMILES
>31 | >111 | < 0.05 | >4154 | – | N#Cc1c(N)ncnc1N1CCC[C@H]1c1cc2cccc(Cl)c2nc1N1CCOCC1 [Compound 69]
145 | 1153 | 2.2 | 3360 | – | Fc1ccc2cc(C3CCCN3c3ncnc4[nH]cnc34)c(N3CCCCC3)nc2c1 (stereo not drawn) [Compound 16]
>188 | >789 | < 0.05 | >1738 | – | Cc1cccc2cc([C@@H]3CCCN3c3ncnc(N)c3C#N)c(N3CCOCC3)nc12 [Compound 65]
139 | 8946 | 0.5 | 16451 | – | Fc1cccc(-c2nc3cc(F)ccc3cc2C2CCCN2c2ncnc3[nH]cnc23)c1 (stereo not drawn) [Compound 22]
67.5 | 3550 | 0.7 | 12818 | – | Fc1ccc2cc(C3CCCN3c3ncnc4[nH]cnc34)c(-c3ccccc3)nc2c1 (stereo not drawn) [Compound 21]
48 | 317 | 1.6 | 748 | – | Cc1cccc2cc([C@@H]3CCCN3c3ncnc4[nH]cnc34)c(N3CCOCC3)nc12 [Compound 64]
85 | 631 | 4.8 | 962 | – | COc1cccc(-c2nc3cc(F)ccc3cc2C2CCCN2c2ncnc(N)c2C#N)c1 (stereo not drawn) [Compound 30]
~10 | >1120 | < 0.05 | >1801 | – | Cc1cccc2cc([C@@H]3CCCN3c3nc(N)nc(N)c3C#N)c(-c3ccccc3)nc12 [Compound 54, (S)-2,4-diamino-6-(2-(8-methyl-2-phenylquinolin-3-yl)pyrrolidin-1-yl)pyrimidine-5-carbonitrile]
1.1 | 1714 | 0.9 | 5958 | – | Nc1nc(N2CCCC2c2cc3ccc(F)cc3nc2N2CCCCC2)c2nc[nH]c2n1 (stereo not drawn) [Compound 17]
955 | 14712 | 0.1 | >100000 | – | N#Cc1c(N)ncnc1N1CCCC1c1cc2ccc(F)cc2nc1N1CCCCC1 (stereo not drawn) [Compound 18]
>5.6 | 1368 | < 0.05 | >8583 | – | N#Cc1c(N)ncnc1N1CCC[C@H]1c1cc2cccc(Cl)c2nc1-c1ccccc1 [Compound 67]
>2.3 | >2185 | < 0.05 | >12756 | – | N#Cc1c(N)nc(N)nc1N1CCCC1c1cc2ccc(F)cc2nc1-c1ccccc1 (stereo not drawn) [Compound 27]
111 | 344 | 1.6 | 1000 | – | N#Cc1c(N)ncnc1N1CCCC1c1cc2ccc(F)cc2nc1N1CCOCC1 (stereo not drawn) [Compound 7, 4-amino-6-(2-(7-fluoro-2-morpholinoquinolin-3-yl)pyrrolidin-1-yl)pyrimidine-5-carbonitrile]
24 | 250 | 1.8 | 493 | – | Clc1cccc2cc([C@@H]3CCCN3c3ncnc4[nH]cnc34)c(N3CCOCC3)nc12 [Compound 66]
52.4 | 478 | 1.7 | 2170 | – | N#Cc1c(N)ncnc1N1CCCC1c1cc2ccc(F)cc2nc1-c1ccccc1 (stereo not drawn) [Compound 29]
~10 | >106 | < 0.05 | >545 | – | N#Cc1c(N)nc(N)nc1N1CCC[C@H]1c1cc2cccc(Cl)c2nc1-c1ccccc1 [Compound 68]
